Reference: patent US8563578B2, “Antitumor properties of NO modified protease inhibitors” (Onconox APS, priority 2008, dated 2013)

Assays:
B16 cells = assay: Melanin determination, B16; format: cell-based, mouse; details: 18.8 μM, 24 h
Procedure: Tyrosinase activity was determined by measuring the rate of oxidation of L-DOPA^34. Briefly, sub-confluent cultures in 6-well plate were lysed in 100 μl phosphate buffer pH 6.8-1% Triton X-100 and than centrifuged at 10000 rpm for 5 min. 40 μl of each extract was mixed with 100 μl of L-DOPA substrate solution (2 mg/ml). Enzymatic reaction was carried out at 37° C. and the absorbance at 570 nm was read every 10 min for at least 1 h. The final activity was corrected by the total amount of protein estimated by Bradford assay. For melanin determination cells were incubated in 6 well plate for 24 h, trypsinized, counted and than lysed in 100 μl of 1M NaOH. 400 μl of distilled water was added and samples were incubated at 60° C. for 1 h. Thereafter, absorbance of dissolved dye was measured at 492 nm.
FIG. 5. […] Cell morphology was assessed by light microscopy (A). Markers of cell differentiation of C6 and B16 cells, galactocerebroside, GFAP and MBP were determined by cELISA and melanin and tyrosinase activity were determined as described in material and methods (B). Cyclin D3 and p53 expression were evaluated by cELISA (C, upper panels), immunocytochemistry (C, middle panel) and Western blot (C, lower panel). The results were presented as mean±SD from three independent experiments. *p<0.05, refers to untreated cultures.

rat primary astrocytes = assay: Cell viability by CV test, primary astrocytes; format: cell-based; details: 24 h, Sag at its IC50 dose
Text: (§1) Rat glioma C6 and human glioblastoma U251 cell lines were a kind gift from Dr. Pedro Tranque (Universidad de Castilla-La Mancha, Albacete, Spain), murine melanoma B 16, and human adenocarcinoma HeLa, were a kind gift from Dr. Sinisa Radulovic (Institute for Oncology and Radiology of Serbia, Belgrade, Serbia) while mouse fibrosarcoma L929 was obtained from the European Collection of Animal Cell Cultures (Salisbury, UK). Human breast HCC1419 and prostate PC-3 cells were purchased from LGC Promochem srl (Venezia, Italy). Primary mouse fibroblasts and rat astrocytes were prepared as described (Mijatovic et al. 2004). […]
(§2) Reduction of 3-4,5-dimethylthiazol-2-yl)-2,5-diphenyltetrazolium bromide (MTT) to formazan depends on mitochondrial activity of cultured cells, absorption of crystal violet dye correlates with the number of adherent, live cells, while the release of cytosolic lactate dehydrogenase (LDH) indicates the disruption of membrane integrity caracteristic for necrotic cells. […] Mitohondrial-dependent production of formazan and intensity of absorbed crystal violet by adherent cells were assessed by an automated microplate reader at 570 nm, while the pyruvate-mediated conversion of 2,4-dinitrophenylhydrazine into visible hydrazone precipitate in LDH assay was measured at 492 nm. […]
(§3) FIG. 2. […] Cell viability was then evaluated by CV test. […]

B16 melanoma = B16 melanoma growth in syngeneic C57BL/6 mice; format: in vivo, mouse; details: 10 mg/kg i.p.; for animals that developed tumors at autopsy: day 30 post tumor challenge
Procedure: In order to induce primary tumor 2×10^5 B16 melanoma cells were injected subcutaneously (s.c) in the dorsal right lumbosacral region of syngeneic C57BL/6 mice. Tumor growth was observed daily, and the drug treatment started from day 10 after implantation. […] Mice were sacrificed on day 30, tumor growth was determined by three-dimensional measurements of individual tumors from each mouse. Tumor volume was calculated as: [0.52×a×b^2], where a is the longest and b is the shortest diameter as described previously (Maksimovic-Ivanic et al. 2008).
FIG. 7. […] Tumor volumes were determined 30 days after tumor implantation, as indicated in Materials and methods.

C6 cells [1] = assay: LDH release assay, C6; format: cell-based; details: 24 h, different doses
Procedure: Reduction of 3-4,5-dimethylthiazol-2-yl)-2,5-diphenyltetrazolium bromide (MTT) to formazan depends on mitochondrial activity of cultured cells, absorption of crystal violet dye correlates with the number of adherent, live cells, while the release of cytosolic lactate dehydrogenase (LDH) indicates the disruption of membrane integrity caracteristic for necrotic cells. The cells were seeded in flat-bottom 96-well plates in a final volume of 200 μl of culture medium containing different agents, and the assays were performed after 24 h incubation exactly as previously described (Mijatovic et al. 2004, Decker et al., 1998). Mitohondrial-dependent production of formazan and intensity of absorbed crystal violet by adherent cells were assessed by an automated microplate reader at 570 nm, while the pyruvate-mediated conversion of 2,4-dinitrophenylhydrazine into visible hydrazone precipitate in LDH assay was measured at 492 nm. The % of cytotoxicity as indicated by LDH release was calculated as: (E−C)/(T−C)×100, where E is the experimental absorbance of cell cultures, C is the control absorbance of cell-free culture medium, and T is the absorbance corresponding to the maximal (100%) LDH release of Triton-lysed cells.
FIG. 4. […] Results are calculated as indicated in materials and methods and presented as mean±SD from representative of three independent experiment (*p <0.05). […]

C6 cells [2] = assay: Cell cycle / apoptosis by propidium iodide flow cytometry, C6; format: cell-based, rat; details: 18.8 μM, 24 h
Procedure: Apoptotic cell death was assessed by flow cytometry analysis of DNA fragmentation in cells stained with DNA-binding dye propidium iodide (PI). Following a 24 h incubation in 6-well plate, cells (2×10^5/well) were detached with trypsin, washed and fixed in 70% ethanol at 4° C. for 30 min. After washing in PBS, cells were resuspended in PBS containing 1 mg/ml RNase and propidium iodide (40 μg/ml) and kept at 37° C. in the dark for 30 min. Red fluorescence was analyzed with FACSCalibur flow cytometer (BD, Heidelberg, Germany) and distribution of cells among cell cycle phases was determined with Cell Quest Pro software (BD). Hypodiploid cells in sub-G0/G1 compartment were considered apoptotic.
FIG. 4. […] Results are calculated as indicated in materials and methods and presented as mean±SD from representative of three independent experiment (*p <0.05). […] After 24 h of cultivation without or with drugs, cells were stained with AO orange (B) or PI (C) and analyzed by flow cytometry. The data are presented as mean±SD from three independent experiments. *p<0.05, refers to untreated cultures. […] Cells were incubated with 18.8 μM of Sag or Saq-NO2 for 24 h. After that, the drugs were either removed or not from the cells and incubated for additional 24 h. Cell viability was determined by CV test after 24 and 48 h of incubation (right panels). The data are presented as mean±SD from three independent experiments. *p<0.05, refers to untreated cultures.

C6 rat astrocytoma = assay: Cell viability, C6 cells; format: cell-based; details: read-out: reduction of cell viability
Text: as §1, §2, §3

[3] = 15 consecutive days from day 10

Row | Structure (SMILES) | melanin content (B16 cells) | effect on viability of non-transformed primary astrocytes (rat primary astrocytes) | animals without tumors with strong inflammation of peritoneum (B16 melanoma; 15 consecutive days) [animals] | loss of body weight from initial body weight (B16 melanoma; 15 consecutive days) [%] | tumor volume (B16 melanoma; 15 consecutive days from day 10, day 30) | animals that developed tumors at autopsy (B16 melanoma; [3]) | LDH release (cytotoxicity, necrosis) (C6 cells [1]) | cell cycle distribution (C6 cells [2]) | cytotoxicity at 18.8 µM (C6 rat astrocytoma) [%] | raise of body weight, of initial body weight (B16 melanoma; 15 consecutive days) [%] | visible signs of toxicity (B16 melanoma; 15 consecutive days) | percentage of cells in subG compartment (apoptosis) (C6 cells [2])
1 | CC(C)(C)NC(=O)[C@@H]1C[C@@H]2CCCC[C@@H]2CN1C[C@@H](O)[C@H](Cc1ccccc1)NC(=O)[C@H](CC(N)=O)NC(=O)c1ccc2ccccc2n1 [Saq, Saquinavir, reference compound] | increased | highly toxic | 4 | 10 | significantly reduced volume | 3/9 | induced LDH release in both cell lines in a dose-dependent way | did not show considerably different distribution from control |  |  |  | 
2 | CC(C)(C)NC(=O)[C@@H]1C[C@@H]2CCCC[C@@H]2CN1C[C@@H](O[N+](=O)[O-])[C@H](Cc1ccccc1)NC(=O)[C@H](CC(N)=O)NC(=O)c1ccc2ccccc2n1 [Saq-NO2, nitric ester of Saquinavir] | unchanged | did not affect the viability |  |  |  | one | significant percentage of C6 cytotoxicity was detected only upon the highest dose | particularly marked arrest in G0/G1 | ~50 | 13 | no any visible signs of toxicity | slightly increased
